Experimental data from a compilation of properties of binary mixtures (doi:10.1021/acs.iecr.1c02970).

Experiment: xn = mol fraction of the nth substance listed
Conditions: 100 kPa

CC[n+]1ccn(C)c1.CS(=O)(=O)[O-] + O
Conditions	electrical conductivity [S/m]	speed of sound [m/s]	viscosity [mPa·s]
293.15 K, x1 = 0.002	0.693	–	–
293.15 K, x1 = 0.0177	–	–	1.439
293.15 K, x1 = 0.0181	–	1596.2	–
293.15 K, x1 = 0.028	4.07	–	–
293.15 K, x1 = 0.0357	–	–	1.98
293.15 K, x1 = 0.0375	–	1686.1	–
293.15 K, x1 = 0.0489	4.55	–	–
293.15 K, x1 = 0.07	4.39	–	–
293.15 K, x1 = 0.0749	–	1801.7	–
293.15 K, x1 = 0.0945	–	1837.1	–
293.15 K, x1 = 0.1089	–	–	5.395
293.15 K, x1 = 0.1122	3.62	–	–
293.15 K, x1 = 0.113	–	1857.6	–
293.15 K, x1 = 0.1833	–	1882.3	–
293.15 K, x1 = 0.1848	–	–	10.55
293.15 K, x1 = 0.2034	2.29	–	–
293.15 K, x1 = 0.2741	–	1871.1	–
293.15 K, x1 = 0.3671	–	1850.8	–
293.15 K, x1 = 0.3752	1.19	–	–
293.15 K, x1 = 0.4263	–	–	34.52
293.15 K, x1 = 0.6064	–	1809.5	–
293.15 K, x1 = 0.6951	–	1800.2	–
293.15 K, x1 = 0.7708	–	1793	–
293.15 K, x1 = 0.9157	–	1780.8	–
293.15 K, x1 = 0.9339	0.201	–	–
293.15 K, x1 = 0.9357	–	–	214.4
293.15 K, x2 = 0.0082	–	1779.6	–
298.15 K, x1 = 0.0375	–	1686.1	–
298.15 K, x1 = 0.056	–	1749	–
298.15 K, x1 = 0.0749	–	1794.6	–
298.15 K, x1 = 0.0945	–	1828.1	–
298.15 K, x1 = 0.113	–	1847.4	–
298.15 K, x1 = 0.2741	–	1859.1	–
298.15 K, x1 = 0.3671	–	1839	–
298.15 K, x1 = 0.489	–	1815.1	–
298.15 K, x1 = 0.6064	–	1797	–
298.15 K, x1 = 0.6951	–	1787.9	–
298.15 K, x1 = 0.9157	–	1767.6	–
298.15 K, x2 = 0.0082	–	1766.9	–
303.15 K, x1 = 0.002	0.852	–	–
303.15 K, x1 = 0.0165	4.03	–	–
303.15 K, x1 = 0.0181	–	1607.4	–
303.15 K, x1 = 0.028	5.09	–	–
303.15 K, x1 = 0.0357	–	–	1.541
303.15 K, x1 = 0.0375	–	1685.5	–
303.15 K, x1 = 0.0489	5.75	–	–
303.15 K, x1 = 0.0674	–	–	2.309
303.15 K, x1 = 0.07	5.61	–	–
303.15 K, x1 = 0.0749	–	1787.3	–
303.15 K, x1 = 0.0945	–	1818.7	–
303.15 K, x1 = 0.1089	–	–	3.994
303.15 K, x1 = 0.113	–	1837.3	–
303.15 K, x1 = 0.1833	–	1859.5	–
303.15 K, x1 = 0.1848	–	–	7.58
303.15 K, x1 = 0.2034	3.13	–	–
303.15 K, x1 = 0.2741	–	1847.2	–
303.15 K, x1 = 0.3671	–	1827.1	–
303.15 K, x1 = 0.3752	1.67	–	–
303.15 K, x1 = 0.4263	–	–	23.25
303.15 K, x1 = 0.489	–	1802.7	–
303.15 K, x1 = 0.6951	–	1775.8	–
303.15 K, x1 = 0.7708	–	1767.9	–
303.15 K, x1 = 0.9157	–	1755.3	–
303.15 K, x1 = 0.9339	0.351	–	–
303.15 K, x2 = 0.0082	–	1754.4	–
308.15 K, x1 = 0.0181	–	1611.3	–
308.15 K, x1 = 0.0375	–	1684.1	–
308.15 K, x1 = 0.056	–	1739.2	–
308.15 K, x1 = 0.0749	–	1779.7	–
308.15 K, x1 = 0.113	–	1827	–
308.15 K, x1 = 0.1833	–	1848.4	–
308.15 K, x1 = 0.2741	–	1835.3	–
308.15 K, x1 = 0.3671	–	1815.2	–
308.15 K, x1 = 0.489	–	1790.4	–
308.15 K, x1 = 0.6951	–	1763.8	–
308.15 K, x1 = 0.7708	–	1755.8	–
308.15 K, x1 = 0.9157	–	1743.1	–
308.15 K, x2 = 0.0082	–	1742.1	–
313.15 K, x1 = 0.002	1.02	–	–
313.15 K, x1 = 0.0165	4.87	–	–
313.15 K, x1 = 0.0177	–	–	0.917
313.15 K, x1 = 0.0181	–	1614.1	–
313.15 K, x1 = 0.028	6.18	–	–
313.15 K, x1 = 0.0375	–	1682.2	–
313.15 K, x1 = 0.0489	7.04	–	–
313.15 K, x1 = 0.056	–	1733.8	–
313.15 K, x1 = 0.0674	–	–	1.819
313.15 K, x1 = 0.07	6.95	–	–
313.15 K, x1 = 0.0749	–	1771.7	–
313.15 K, x1 = 0.0945	–	1799.6	–
313.15 K, x1 = 0.1122	6	–	–
313.15 K, x1 = 0.113	–	1816.6	–
313.15 K, x1 = 0.1833	–	1836.9	–
313.15 K, x1 = 0.1848	–	–	5.649
313.15 K, x1 = 0.2034	4.08	–	–
313.15 K, x1 = 0.2741	–	1823.4	–
313.15 K, x1 = 0.3671	–	1803.3	–
313.15 K, x1 = 0.4263	–	–	16.5
313.15 K, x1 = 0.489	–	1778.5	–
313.15 K, x1 = 0.6064	–	1760.4	–
313.15 K, x1 = 0.6951	–	1751.7	–
313.15 K, x1 = 0.7708	–	1743.9	–
313.15 K, x1 = 0.9339	0.558	–	–
313.15 K, x1 = 0.9357	–	–	68.4
313.15 K, x2 = 0.0082	–	1730	–
318.15 K, x1 = 0.0181	–	1615.9	–
318.15 K, x1 = 0.056	–	1727.8	–
318.15 K, x1 = 0.0749	–	1763.5	–
318.15 K, x1 = 0.113	–	1806.2	–
318.15 K, x1 = 0.2741	–	1811.2	–
318.15 K, x1 = 0.3671	–	1791.3	–
318.15 K, x1 = 0.489	–	1766.7	–
318.15 K, x1 = 0.6064	–	1748.6	–
318.15 K, x1 = 0.7708	–	1731.9	–
318.15 K, x1 = 0.9157	–	1719.1	–
318.15 K, x2 = 0.0082	–	1717.9	–
323.15 K, x1 = 0.002	1.2	–	–
323.15 K, x1 = 0.0165	5.73	–	–
323.15 K, x1 = 0.0181	–	1616.5	–
323.15 K, x1 = 0.028	7.33	–	–
323.15 K, x1 = 0.056	–	1721.3	–
323.15 K, x1 = 0.0674	–	–	1.468
323.15 K, x1 = 0.07	8.43	–	–
323.15 K, x1 = 0.0749	–	1754.8	–
323.15 K, x1 = 0.0945	–	1779.5	–
323.15 K, x1 = 0.1089	–	–	2.428
323.15 K, x1 = 0.1122	7.28	–	–
323.15 K, x1 = 0.1848	–	–	4.37
323.15 K, x1 = 0.2741	–	1799	–
323.15 K, x1 = 0.489	–	1754.8	–
323.15 K, x1 = 0.6951	–	1727.9	–
323.15 K, x1 = 0.7708	–	1720	–
323.15 K, x1 = 0.9157	–	1707.2	–
323.15 K, x1 = 0.9357	–	–	44.06
323.15 K, x2 = 0.0082	–	1705.9	–
328.15 K, x1 = 0.0181	–	1616.2	–
328.15 K, x1 = 0.0375	–	1672.1	–
328.15 K, x1 = 0.056	–	1714.4	–
328.15 K, x1 = 0.0749	–	1745.8	–
328.15 K, x1 = 0.0945	–	1769	–
328.15 K, x1 = 0.113	–	1783.9	–
328.15 K, x1 = 0.1833	–	1800.7	–
328.15 K, x1 = 0.2741	–	1786.7	–
328.15 K, x1 = 0.489	–	1743	–
328.15 K, x1 = 0.6064	–	1725	–
328.15 K, x1 = 0.6951	–	1716.1	–
328.15 K, x1 = 0.7708	–	1707.9	–
328.15 K, x1 = 0.9157	–	1695.4	–
333.15 K, x1 = 0.002	1.38	–	–
333.15 K, x1 = 0.0165	6.66	–	–
333.15 K, x1 = 0.0177	–	–	0.642
333.15 K, x1 = 0.0181	–	1615.2	–
333.15 K, x1 = 0.028	8.53	–	–
333.15 K, x1 = 0.0357	–	–	0.848
333.15 K, x1 = 0.0375	–	1667.4	–
333.15 K, x1 = 0.0489	9.85	–	–
333.15 K, x1 = 0.0674	–	–	1.214
333.15 K, x1 = 0.07	9.96	–	–
333.15 K, x1 = 0.0749	–	1736.4	–
333.15 K, x1 = 0.0945	–	1758.3	–
333.15 K, x1 = 0.1089	–	–	1.965
333.15 K, x1 = 0.1122	8.86	–	–
333.15 K, x1 = 0.113	–	1772.4	–
333.15 K, x1 = 0.1848	–	–	3.473
333.15 K, x1 = 0.2034	6.33	–	–
333.15 K, x1 = 0.2741	–	1774.2	–
333.15 K, x1 = 0.3752	3.67	–	–
333.15 K, x1 = 0.4263	–	–	9.38
333.15 K, x1 = 0.6064	–	1713.3	–
333.15 K, x1 = 0.6951	–	1704.2	–
333.15 K, x1 = 0.7708	–	1696.1	–
333.15 K, x1 = 0.9157	–	1683.7	–
333.15 K, x1 = 0.9339	1.16	–	–
333.15 K, x1 = 0.9357	–	–	29.98
333.15 K, x2 = 0.0082	–	1682.3	–
343.15 K, x1 = 0.002	1.59	–	–
343.15 K, x1 = 0.0177	–	–	0.551
343.15 K, x1 = 0.0181	–	1610.8	–
343.15 K, x1 = 0.028	9.78	–	–
343.15 K, x1 = 0.0357	–	–	0.735
343.15 K, x1 = 0.0375	–	1656.3	–
343.15 K, x1 = 0.056	–	1690.9	–
343.15 K, x1 = 0.0674	–	–	1.026
343.15 K, x1 = 0.07	11.6	–	–
343.15 K, x1 = 0.0749	–	1716.8	–
343.15 K, x1 = 0.0945	–	1736.2	–
343.15 K, x1 = 0.1089	–	–	1.629
343.15 K, x1 = 0.1122	10.4	–	–
343.15 K, x1 = 0.113	–	1748.7	–
343.15 K, x1 = 0.1833	–	1762.7	–
343.15 K, x1 = 0.1848	–	–	2.831
343.15 K, x1 = 0.2034	7.58	–	–
343.15 K, x1 = 0.2741	–	1749.3	–
343.15 K, x1 = 0.3671	–	1730.3	–
343.15 K, x1 = 0.3752	4.5	–	–
343.15 K, x1 = 0.489	–	1707.6	–
343.15 K, x1 = 0.6951	–	1680.7	–
343.15 K, x1 = 0.9157	–	1660.7	–
343.15 K, x1 = 0.9339	1.55	–	–
343.15 K, x1 = 0.9357	–	–	21.61
343.15 K, x2 = 0.0082	–	1659	–
353.15 K, x1 = 0.002	1.81	–	–
353.15 K, x1 = 0.0177	–	–	0.475
353.15 K, x1 = 0.028	11.1	–	–
353.15 K, x1 = 0.0357	–	–	0.625
353.15 K, x1 = 0.07	13.2	–	–
353.15 K, x1 = 0.1089	–	–	1.37
353.15 K, x1 = 0.1122	12.1	–	–
353.15 K, x1 = 0.2034	8.9	–	–
353.15 K, x1 = 0.9357	–	–	16.3
